Experimental data from article PMC10485820 (European Journal of Pharmaceutical Sciences, 2023).

Legend:
[1] = Single ascending dose clinical study in Chinese healthy volunteers (CTR20180791): pharmacokinetics; assay type: in vivo, human; conditions: for AUC / Cmax / clearance / Vd/F: human, in vivo, oral, Chinese healthy volunteers; for clearance: read-out: CL Obs (converted); for Vd/F: read-out: VZ/F Obs
glycosylated hemoglobin = assay: Multidose exploratory clinical study of T2DM patients (CTR20182505): glycosylated hemoglobin; assay type: in vivo, human; conditions: after six doses of oral administration
OAT3 = biological target: T1, OAT3 (Homo sapiens, UniProt Q8TCC7); assay: Preclinical transporter substrate assessment (unpublished); assay type: in vitro ADME
T1 sequence (Q8TCC7 1-542): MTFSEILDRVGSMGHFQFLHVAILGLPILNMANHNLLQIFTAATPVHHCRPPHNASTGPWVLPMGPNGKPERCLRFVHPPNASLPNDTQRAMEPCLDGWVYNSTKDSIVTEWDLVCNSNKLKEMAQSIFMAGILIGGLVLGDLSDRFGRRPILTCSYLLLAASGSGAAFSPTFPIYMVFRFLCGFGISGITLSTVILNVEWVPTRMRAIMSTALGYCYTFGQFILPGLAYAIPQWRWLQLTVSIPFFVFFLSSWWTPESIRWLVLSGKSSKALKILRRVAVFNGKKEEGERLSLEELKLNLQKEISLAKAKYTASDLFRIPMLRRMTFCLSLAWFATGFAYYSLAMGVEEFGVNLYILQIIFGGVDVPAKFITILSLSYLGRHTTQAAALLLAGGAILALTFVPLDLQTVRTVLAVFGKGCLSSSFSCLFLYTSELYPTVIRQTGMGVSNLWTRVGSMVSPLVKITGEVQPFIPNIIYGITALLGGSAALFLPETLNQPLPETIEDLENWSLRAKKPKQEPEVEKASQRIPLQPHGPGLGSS

OATP1B1 = biological target: T2, OATP1B1 (Homo sapiens, UniProt Q9Y6L6); assay: as above; assay type: in vitro ADME
T2 sequence (Q9Y6L6 1-691): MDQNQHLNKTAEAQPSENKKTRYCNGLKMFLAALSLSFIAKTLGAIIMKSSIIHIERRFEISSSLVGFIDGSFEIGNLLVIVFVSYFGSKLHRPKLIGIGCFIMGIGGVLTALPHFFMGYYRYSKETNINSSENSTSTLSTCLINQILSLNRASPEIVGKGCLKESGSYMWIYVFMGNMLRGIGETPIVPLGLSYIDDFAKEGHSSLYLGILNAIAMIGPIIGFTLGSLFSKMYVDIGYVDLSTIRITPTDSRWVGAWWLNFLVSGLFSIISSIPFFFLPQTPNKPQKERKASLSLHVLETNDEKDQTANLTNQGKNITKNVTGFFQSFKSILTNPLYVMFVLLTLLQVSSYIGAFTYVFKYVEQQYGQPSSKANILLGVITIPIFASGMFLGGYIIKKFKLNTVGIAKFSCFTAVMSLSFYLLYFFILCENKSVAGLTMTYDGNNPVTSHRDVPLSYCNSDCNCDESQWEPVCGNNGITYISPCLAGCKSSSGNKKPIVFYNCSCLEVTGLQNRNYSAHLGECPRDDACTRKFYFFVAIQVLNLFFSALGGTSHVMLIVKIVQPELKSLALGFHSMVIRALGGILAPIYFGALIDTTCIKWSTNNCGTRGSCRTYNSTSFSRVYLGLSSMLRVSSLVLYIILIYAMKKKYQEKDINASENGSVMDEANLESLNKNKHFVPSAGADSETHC

[2] = Stability in human liver microsomes incubation system (unpublished); conditions: 1 μM, 0.5 mg/mL human liver microsomes
Method: Reactions were stopped by removing the plates from the incubator and mixing the incubation solution with 600 μL of ice-cold stop solution (acetonitrile) at the corresponding sampling time points.

[3] = Renal clearance from in vivo clinical study; conditions: human, oral; Measured (in vivo); read-out: CLR (renal clearance) (converted)
Source text: (§1) The development of the DLM was complex.

[4] = Physicochemical parameters (log P, pKa) from experimental outcomes; conditions: Measured (in vitro)
Source text: as §1

[5] = Drug-drug interaction study of HSK7653 with metformin, multiple doses, Chinese healthy volunteers (CTR20191549): pharmacokinetics; conditions: human, in vivo, oral, Multiple dose (D1 35 mg; D8/D15/D22 25 mg) with metformin, fasted
[6] = Mass balance study (CTR20201559); assay type: in vivo, human
OCT3 = biological target: T3, OCT3 (Homo sapiens, UniProt O75751); assay: Preclinical transporter substrate assessment (unpublished); assay type: in vitro ADME
T3 sequence (O75751 1-556): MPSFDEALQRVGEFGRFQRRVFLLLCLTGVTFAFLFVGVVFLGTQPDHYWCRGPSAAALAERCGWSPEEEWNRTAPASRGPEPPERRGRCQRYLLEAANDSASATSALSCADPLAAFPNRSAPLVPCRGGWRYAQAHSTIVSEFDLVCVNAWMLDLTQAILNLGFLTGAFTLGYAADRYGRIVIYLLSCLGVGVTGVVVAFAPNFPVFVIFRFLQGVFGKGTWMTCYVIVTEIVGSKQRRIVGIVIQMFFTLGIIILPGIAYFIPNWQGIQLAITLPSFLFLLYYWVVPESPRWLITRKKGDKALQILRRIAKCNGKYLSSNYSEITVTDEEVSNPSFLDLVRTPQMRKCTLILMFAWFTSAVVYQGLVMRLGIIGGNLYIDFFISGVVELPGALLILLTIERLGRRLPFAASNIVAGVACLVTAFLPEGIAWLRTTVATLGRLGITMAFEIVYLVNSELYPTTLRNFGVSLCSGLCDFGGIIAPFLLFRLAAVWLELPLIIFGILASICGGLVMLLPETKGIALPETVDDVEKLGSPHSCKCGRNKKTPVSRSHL

[7] = 10 mg, 10 mg single dose, fasted
[8] = 25 mg, 25 mg single dose, fasted
[9] = 50 mg, 50 mg single dose, fasted
[10] = 100 mg, 100 mg single dose, fasted
[11] = 150 mg, 150 mg single dose, fasted
[12] = mass balance study, unpublished

CS(=O)(=O)n1cc2c(n1)CN([C@@H]1C[C@H](N)[C@@H](c3cc(F)ccc3F)O[C@@H]1C(F)(F)F)C2 [HSK7653]
Increase in AUC under the fed state compared with the fasted state ([1]; clinical study): 3% | AUC ([1]; 5 mg, 5 mg single dose, fasted): 8980 ng·h/mL | Cmax ([1]; 5 mg, 5 mg single dose, fasted): 101 ng/mL | clearance ([1]; 5 mg, 5 mg single dose, fasted): 9.67 mL/min | Vd/F ([1]; 5 mg, 5 mg single dose, fasted): 1.65 L/kg | AUC [1, 7]: 17700 ng·h/mL | Cmax [1, 7]: 237 ng/mL | clearance [1, 7]: 9.67 mL/min | Vd/F [1, 7]: 1.71 L/kg | AUC [1, 8]: 40500 ng·h/mL | Cmax [1, 8]: 413 ng/mL | clearance [1, 8]: 10.2 mL/min | Vd/F [1, 8]: 1.52 L/kg | AUC [1, 9]: 90400 ng·h/mL | Cmax [1, 9]: 981 ng/mL | clearance [1, 9]: 9.67 mL/min | Vd/F [1, 9]: 1.26 L/kg | AUC ([1]; 50 mg, 50 mg single dose, fed): 92900 ng·h/mL | Cmax ([1]; 50 mg, 50 mg single dose, fed): 834 ng/mL | clearance ([1]; 50 mg, 50 mg single dose, fed): 9.5 mL/min | Vd/F ([1]; 50 mg, 50 mg single dose, fed): 1.37 L/kg | AUC [1, 10]: 218000 ng·h/mL | Cmax [1, 10]: 2130 ng/mL | clearance [1, 10]: 8.33 mL/min | Vd/F [1, 10]: 1.07 L/kg | AUC [1, 11]: 269000 ng·h/mL | Cmax [1, 11]: 3330 ng/mL | clearance [1, 11]: 11 mL/min | Vd/F [1, 11]: 1.13 L/kg | Dose linearity ([1]; within the currently selected therapeutic dose range): dose linear | Glycosylated hemoglobin change (glycosylated hemoglobin): significantly reduced | Transporter substrate assessment (OAT3): not a common transport substrate | Transporter substrate assessment (OATP1B1): not a common transport substrate | Metabolic stability in human liver microsomes [2]: very stable | CL renal [3]: 6.22 mL/min | logP [4]: 1.42 | pKa ([4]; Monoprotic base): 6.75 | Cmax [5]: 533 ng/mL | clearance ([5]; read-out: CL Obs (converted)): 9.17 mL/min | Vd/F ([5]; read-out: VZ/F Obs): 1.08 L/kg | Fecal excretion of unchanged compound ([6]; mass balance study): 7.40% | Unchanged drug excreted by the kidney ([6]; mass balance study): 68.1% | Unrecovered radioactive substances (unknown pathway) ([6]; mass balance study): 4.1% | Detected (recovered) radioactivity [6, 12]: 95.9% | Unextracted radioactive substrates in feces [6, 12]: 2.99% | Unextracted radioactive substrates in urine [6, 12]: 1.99% | Unextracted radioactivity in urine and feces (sum) ([6]; sum of unextracted radioactivity in urine and feces): approximately 4.98% | Transporter substrate assessment (OCT3): not a common transport substrate
